Results published in patent publication US9365499B2, “9-aminomethyl substituted tetracycline compounds” (KBP Biosciences Co., Ltd., priority 2011, dated 2016).
Converted amounts (≈) assume the structure as drawn. Like-named read-outs stand apart in the source and are kept apart here.

Key:
in vivo = test: in vivo; set-up: species or system male SD rats; details: male, SD, rat
Description: Test animals: male SD rats, weighing 180-280 g, purchased from Beijing Vital River Laboratory Animal Technology Co., Ltd.; animal Certificate of Conformity: SCXK (Beijing) 2006-0009. Six rats were tested for each compound. the compounds of the present invention, prepared in accordance with the methods of above Examples, dissolved in physiological saline. tigecycline, dissolved in physiological saline. Administration of the compounds of the present invention: intravenous bolus injection (iv), dose: 5 mg/kg, administrating volume: 5 mL/kg; gavage (po), dose: 5 mg/kg, administrating volume: 5 mL/kg. Administration of tigecycline: gavage (po), dose: 10 mg/kg, administrating volume: 5 mL/kg. Prior to administration help but water fasting for 16 hours, 4 hours after administration to food. Compound 9: iv blood sampling time point: denoted by 0 min before administration, 5 min, 15 min, 30 min, 1 […] after administration; po blood sampling time point: denoted by 0 min before administration, 5 min, 15 min, 30 min, 1 […] after administration; Compound 20: iv blood sampling time point: 5 min, 15 min, 30 min, 1 […] after administration; po blood sampling time point: 10 min, 30 min, 1 […] after administration; Compound 23: iv blood sampling time point: denoted by 0 min before administration, 5 min, 15 min, 30 min, 1 […] after administration; po blood sampling time point: denoted by 0 min before administration, 5 min, 15 min, 30 min, 1 […] after administration; Tigecycline: iv blood sampling time point: 5 min, 15 min, 30 min, 1 h, 2 h, 4 h, 6 h, 8 h after administration; po blood sampling time point: 10 min, 30 min, 1 […] after administration. Each time point is taken around 100 μl whole blood and placed in a heparinized tube, centrifugated at 8000 rpm/min at 4° C. for 6 minutes in a low-temperature high-speed centrifuge to separate plasma, the resulting plasma was frozen at -80° C. refrigerator. Plasma samples analysis: 20 μl of plasma was taken and added 200 μl of internal standard solution, subjected to vortex for 3 minutes, then to centrifugation at 12,000 rpm/min for 5 minutes. 100 μl of supernatant was taken and analyzed using LC-MS/MS. Formula Absolute Bioavailability F%=[AUC](po)×Dose(iv)/[AUC](iv)×Dose(po)

Escherichia coli = test: antibacterial activity in vitro, agar dilution method; assay type: cell-based
Description: (§1) The antibacterial spectrum and in vitro antibacterial activity of the compound of the present invention
(§2) Experimental method: the agar dilution method, with reference to Clinical And Laboratory Standards Institute. Methods for Dilution Antimicrobial Susceptibility Tests for Bacteria That Grow Aerobically; Approved Standard-Seventh Edition. CLSI Document M7-A7. Vol 26, no. 2, Wayne, Pa.: Clinical and Laboratory Standards Institute, 2006.
(§3) Wherein MIC represents the minimum inhibitory concentration, MIC90 represents the 90% inhibitory concentration.

[1] = tested on: Methicillin-resistant Staphylococcus aureus (MRSA); test: as above; assay type: cell-based; details: for MIC90: Table 5, MIC90 = 90% inhibitory concentration
Description: as §1, §2, §3

Enterococcus faecalis = test: as above; assay type: cell-based; details: Table 4
Description: as §1, §2, §3

[2] = tested on: Acinetobacter calcoaceticus; test: as above; assay type: cell-based; details: Table 4
Description: as §1, §2, §3

Klebsiella pneumoniae = test: as above; assay type: cell-based
Description: as §1, §2, §3

Hemophilus influenzae = test: as above; assay type: cell-based; details: Haemophilus influenzae; Table 5; MIC90 = 90% inhibitory concentration
Description: as §1, §2, §3

[3] = tested on: Streptococcus constellatus; test: as above; assay type: cell-based; details: Table 5, MIC90 = 90% inhibitory concentration
Description: as §1, §2, §3

Staphylococcus aureus [4] = test: as above; assay type: cell-based; details: for MIC90: Staphylococcus aureus, Table 5, MIC90 = 90% inhibitory concentration; for MIC: Table 10, Staphylococcus aureus of the thigh model
Description: as §1, §2, §3

Acinetobacter baumannii = test: as above; assay type: cell-based; details: for MIC90: Table 5, MIC90 = 90% inhibitory concentration
Description: as §1, §2, §3

Streptococus agalactiae = test: as above; assay type: cell-based; details: Table 4
Description: as §1, §2, §3

Staphylococcus aureus [5] = test: bactericidal effects in vivo in neutropenic mouse thigh model with Staphylococcus aureus infection; set-up: species or system mice; details: for change values (24 h vs blank group mean 0 h) / log10 CFU for each thigh, mean ± standard deviations (24 h): 2 dose times, subcutaneous
Description: Bactericidal Effects of the Present Compounds In Vivo in Mouse Thigh Model with Staphylococcus aureus Infection SPF grade CD-1 (ICR) female mice housed in SPF environment, weighing 25±2 g, purchased from Beijing Vital River Laboratory Animal Technology Co., Ltd., licensed […] No: SCXK (Beijing) 2006-0009. Staphylococcus aureus: purchased from Shanghai Renji Hospital. Four days before bacterial infection, intraperitoneal (ip) injection of cyclophosphamide 150 mg/kg; 1 day before bacterial infection, intraperitoneal (ip) injection of cyclophosphamide 100 mg/kg; Picked fresh Staphylococcus aureus single colonies which were plate cultured for 18 h, and inoculated into broth and cultured at 35° C. for 18 h. The bacterial suspension was diluted with broth, and 0.5 McFarland turbidity standard indicator bacteria suspension was prepared with a McFarland turbiditor, 10-fold diluted with broth and injected into the thigh muscle of mice in an amount of 0.1 mL for each thigh. The concentration of the bacteria suspension was about 10^6-10^7 CFU/ml. The inoculum concentration was determined by an agar-plate count method. Blank Group: the animals were sacrificed by dislocation at 2 h (recorded as 0 h) after the inoculation of bacteria. Solvent group: The first administration time was set at 2 h (denoted as 0 h) after the animals were infected with bacteria, the solvent was subcutaneously administrated, the animals were sacrificed by dislocation at 24 h after the administration. Treatment group: The first administration time was set at 2 h (denoted as 0 h). […] The thigh muscle tissue was separated from the sacrificed animals, and 5 mL of sodium chloride injection was added, homogenated. The homogenate obtained were diluted series, taken 0.05 mL and inoculated to agar plates, two plates were inoculated in parallel for each gradient bacterial suspension, and incubated at 35° C. for 18 h. Observe the growth of the colonies on each plate, and select the plates with the number of colonies between 30-300 for colony count. The number of colonies was recorded as n1, n2. N represents the diluted fold. The number of colonies (units CFU) for each thigh was calculated according to the formula of “(n1+n2)/2/0.05×5×N”. A logarithm to the base 10 for the number of colonies of each thigh was calculated to obtain log10 CFU value for each thigh.

Streptococcus pyogenes = test: antibacterial activity in vitro, agar dilution method; assay type: cell-based; details: Table 2
Description: as §1, §2, §3

[6] = tested on: Methicillin-resistant Staphycoccus epidermidis (MRSE); test: as above; assay type: cell-based; details: Staphylococcus epidermidis, Table 2
Description: as §1, §2, §3

[7] = cited from earlier work
[8] = monkey, oral; cited from earlier work
[9] = male SD rats, 5 mg/kg iv, cited from earlier work
[10] = Table 4, agar dilution, read-out: antibacterial activity MIC, Acinetobacter baumannii

Row | SMILES | AUC(0-inf) (in vivo; iv, 5 mg/kg) | Vd (in vivo; iv, 5 mg/kg) | clearance (in vivo; iv, 5 mg/kg) | half-life (in vivo; iv, 5 mg/kg) | MIC (Escherichia coli; Table 4) | MIC ([1]; Table 4, agar dilution) | MIC90 [1] | MIC (Enterococcus faecalis) | MIC90 (Hemophilus influenzae) | MIC90 [3] | MIC90 (Staphylococcus aureus [4]) | MIC (Staphylococcus aureus [4]) | MIC90 (Acinetobacter baumannii) | change values (24 h vs blank group mean 0 h) (Staphylococcus aureus [5]; 2 mg/kg/day) | log10 CFU for each thigh, mean ± standard deviations (24 h) (Staphylococcus aureus [5]; 2 mg/kg/day) | bactericidal effect against Staphylococcus aureus in vivo in mice (Staphylococcus aureus [5]; 6 mg/kg/day) | change values (24 h vs blank group mean 0 h) (Staphylococcus aureus [5]; 6 mg/kg/day) | log10 CFU for each thigh, mean ± standard deviations (24 h) (Staphylococcus aureus [5]; 6 mg/kg/day) | change values (24 h vs blank group mean 0 h) (Staphylococcus aureus [5]; 18 mg/kg/day) | log10 CFU for each thigh, mean ± standard deviations (24 h) (Staphylococcus aureus [5]; 18 mg/kg/day) | further results
1 | CN(C)c1cc(CN2CC3CC3C2)c(O)c2c1C[C@H]1C[C@H]3[C@H](N(C)C)C(O)=C(C(N)=O)C(=O)[C@@]3(O)C(O)=C1C2=O (stereo partly drawn) [Compound 23, (4S,4aS,5aR,12aS)-9-(3-azabicyclo[3.1.0]hexan-3-ylmethyl)-4,7-bis(dimethylamino)-3,10,12,12a-tetrahydroxy-1,11-dioxo-1,4,4a,5,5a,6,11,12a-octahydrotetracene-2-carboxamide] | 9110 ng·h/mL | 5 L/kg | 9.33 mL/min/kg | 9.94 h | 0.25 µg/mL (≈ 0.452 µM) | 0.25 µg/mL (≈ 0.452 µM) | 0.5 µg/mL (≈ 0.905 µM) | 0.06 µg/mL (≈ 0.109 µM) | 0.5 µg/mL (≈ 0.905 µM) | 0.125 µg/mL (≈ 0.226 µM) | 0.25 µg/mL (≈ 0.452 µM) | 0.25 µg/mL (≈ 0.452 µM) | 2 µg/mL (≈ 3.62 µM) | 1.28 log10 CFU | 7.67 ± 0.17 log10 CFU | had bactericidal effect | −0.12 log10 CFU | 6.27 ± 0.41 log10 CFU | −2.04 log10 CFU | 4.35 ± 0.45 log10 CFU | AUC(0-inf) (in vivo; po, 5 mg/kg): 2000 ng·h/mL; Cmax (in vivo; po, 5 mg/kg): 199 ng/mL; Tmax (in vivo; po, 5 mg/kg): 1 h; bioavailability (in vivo; po, 5 mg/kg): 22%; MIC [2]: 0.125 µg/mL (≈ 0.226 µM); MIC (Klebsiella pneumoniae; Table 4): 1 µg/mL (≈ 1.81 µM); MIC (Acinetobacter baumannii; [10]): 1 µg/mL (≈ 1.81 µM); MIC (Streptococus agalactiae): 0.06 µg/mL (≈ 0.109 µM); bacteria reducing value of each thigh (Staphylococcus aureus [5]; 6 mg/kg/day): 0.12
2 | CN(C)c1cc(CNCC(C)(C)C)c(O)c2c1C[C@H]1C[C@H]3[C@H](N(C)C)C(O)=C(C(N)=O)C(=O)[C@@]3(O)C(O)=C1C2=O [PTK-0796, reference compound] | – | – | – | – | 4 µg/mL (≈ 7.19 µM) | 2 µg/mL (≈ 3.59 µM) | 2 µg/mL (≈ 3.59 µM) | 0.25 µg/mL (≈ 0.449 µM) | 1 µg/mL (≈ 1.8 µM) | 0.5 µg/mL (≈ 0.898 µM) | 0.5 µg/mL (≈ 0.898 µM) | 0.5 µg/mL (≈ 0.898 µM) | 8 µg/mL (≈ 14.4 µM) | 1.77 log10 CFU | 8.16 ± 0.13 log10 CFU | did not show bactericidal effect | 1.20 log10 CFU | 7.59 ± 0.21 log10 CFU | −1.05 log10 CFU | 5.34 ± 0.79 log10 CFU | MIC (Escherichia coli; Table 2): 1 µg/mL (≈ 1.8 µM); MIC ([1]; Table 2, agar dilution): 0.5 µg/mL (≈ 0.898 µM); MIC (Streptococcus pyogenes): 0.25 µg/mL (≈ 0.449 µM); MIC [6]: 0.5 µg/mL (≈ 0.898 µM); MIC [2]: 0.5 µg/mL (≈ 0.898 µM); MIC (Klebsiella pneumoniae; Table 2): 4 µg/mL (≈ 7.19 µM); MIC (Klebsiella pneumoniae; Table 4): 8 µg/mL (≈ 14.4 µM); MIC (Acinetobacter baumannii; Table 2, agar dilution, read-out: antibacterial activity MIC, Acinetbacter baumannii): 2 µg/mL (≈ 3.59 µM); MIC (Acinetobacter baumannii; [10]): 4 µg/mL (≈ 7.19 µM); MIC (Streptococus agalactiae): 0.5 µg/mL (≈ 0.898 µM); bacteria growing values of each thigh (Staphylococcus aureus [5]; 6 mg/kg/day): 1.20
3 | CN(C)c1cc(NC(=O)CNC(C)(C)C)c(O)c2c1C[C@H]1C[C@H]3[C@H](N(C)C)C(O)=C(C(N)=O)C(=O)[C@@]3(O)C(O)=C1C2=O [tigecycline] | 5120 ng·h/mL | 4.47 L/kg | 16.5 mL/min/kg | 3.8 h | – | – | 1 µg/mL (≈ 1.71 µM) | – | 0.5 µg/mL (≈ 0.854 µM) | 0.25 µg/mL (≈ 0.427 µM) | 0.5 µg/mL (≈ 0.854 µM) | 0.25 µg/mL (≈ 0.427 µM) | 4 µg/mL (≈ 6.83 µM) | 1.63 log10 CFU | 8.02 ± 0.24 log10 CFU | did not show bactericidal effect | 0.63 log10 CFU | 7.02 ± 0.43 log10 CFU | −2.19 log10 CFU | 4.20 ± 0.25 log10 CFU | AUC(0-inf) (in vivo; po, 10 mg/kg): 296 ng·h/mL; Cmax (in vivo; po, 10 mg/kg): 31.8 ng/mL; Tmax (in vivo; po, 10 mg/kg): 0.5 h; bioavailability (in vivo; po, 10 mg/kg): 1.8%; absorption in an oral use [7]: can not be absorbed in an oral use; absorption in vivo when orally used [8]: can not be absorbed in vivo when orally used; AUC ([9]; time 0-24 h): 3550 ng·h/mL; T1/2 [9]: 1 h; bacteria growing values of each thigh (Staphylococcus aureus [5]; 6 mg/kg/day): 0.63
